Assay results taken from publication PMC6158189, “A pharmacological probe identifies cystathionine β-synthase as a new negative regulator for ferroptosis” (Cell Death & Disease, 2018).

Tests used:
[1] = target: T1, hCBS Q222A (Homo sapiens, UniProt P35520, Q222A); experiment: purified hCBS mutant enzyme assay; type: biochemical
T1 construct: hCBS-413 (a C-terminal truncated hCBS 1–413); GST (N); made in house; host or cells: E. coli BL21
T1 sequence (P35520 1-413 Q222A): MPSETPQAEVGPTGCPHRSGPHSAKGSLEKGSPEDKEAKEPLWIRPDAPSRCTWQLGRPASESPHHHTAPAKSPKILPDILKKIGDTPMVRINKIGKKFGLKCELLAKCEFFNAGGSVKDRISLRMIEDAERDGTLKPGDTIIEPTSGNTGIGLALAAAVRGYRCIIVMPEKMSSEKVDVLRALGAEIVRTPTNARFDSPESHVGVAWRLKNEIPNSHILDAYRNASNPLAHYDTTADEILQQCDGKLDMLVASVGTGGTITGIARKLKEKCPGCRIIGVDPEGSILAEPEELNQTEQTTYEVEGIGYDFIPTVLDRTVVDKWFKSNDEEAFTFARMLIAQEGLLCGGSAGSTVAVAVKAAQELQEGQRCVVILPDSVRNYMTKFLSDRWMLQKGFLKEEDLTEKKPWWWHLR
Method: The IC50 values of CH004 for hCBS-413, hCBS-413 mutants, hCBS-FL, hCSE or hDDC were determined according to the standard assay conditions otherwise indicated.
Figure S6. […] HEK293T cells stably expressing CBS Q222A mutant (293T-CBS Q222A) were treated with 0 (DMSO control), 5 or 10 μM CH004 for 8 h before staining with the AzMC to detect H2S. The overlaid images of fluorescent and bright-field images are shown in the left panel, and the corresponding fluorescent (blue, H2S) and bright-field images are shown in the middle and right panels, respectively. Bars: 50 μm. [picture] Figure S7. The CH004-insensitive CBS Q222A mutant can be inhibited by HA. (A) HEK293T cells stably expressing CBS Q222A mutant (293T-CBS Q222A) were treated with 0 (DMSO, control), 5 or 10 μM of CH004, 1 mM or 2 mM of HA for 8 h before staining with the AzMC to detect H2S. The overlaid images of fluorescent and bright-field images are shown in the upper panel, and the corresponding fluorescent (blue, H2S) and bright-field images are shown in the middle and lower panels, respectively. Bars: 50 μm. (B) Quantification of the mean fluorescent density of H2S (blue). The intensity of blue light of the fluorescent images was quantified by ImageJ software, quantified and deduced the background signal in HEK293T-EV cells (Supplementary Figure S3B), normalized by the corresponding cell area and expressed as percentages of control (DMSO group, 100%). Means ± SDs (n=3). One-way ANOVA with Bonferroni post-tests was used for the analysis. *, p< 0.05; **, p< 0.01; n.s. no significance. The images are one representative from three independent experiments. (C) The inhibitory effect of 1 mM HA on purified CBS Q222A mutant. The assay was performed using 60 mM Cys and 1.2 μM CBS-413 Q222A mutant. The data were expressed as percentages of control (DMSO, 100%). Means ± SDs (n=4). [picture]
Table S2. Inhibitory effects of CH004 on hCBS WT and mutants.

[2] = tested on: HepG2 cells; experiment: intracellular ROS (DCFH-DA, flow cytometry); type: cell-based, human; conditions: HepG2, 12 h
Method: Fig. 5 In situ reduction of CBS activity and H2S in mitochondria by CH004 is coupled with an increase of intracellular ROS. a, b CH004 dose-dependently elevates ROS levels in both HepG2 (a) and HEK293T cells (b). The cells were treated with CH004 for 12 h or with 1 mM H2O2 for 30 min before the staining with DCFH-DA (Molecular Probes) and the analyzsis by flow cytometry (“Materials and Methods” section). Means ± SDS (n = 3). […] HepG2 cells were incubated with indicated inhibitors for 8 h before staining with the mitochondria tracker Mito-tracker® Green (Invitrogen) and the AzMC probe. Cyan represents the colocalization of H2S (blue) and the mitochondria tracker (green). Bars: 50 μm. d hCBS co-localizes with the mitochondria in HepG2 and HEK293T cells. HepG2 and HEK293T cells were stained with an anti-CBS antibody (3E1, 1:200; Abnova) for hCBS (red), Mito-tracker® Green for the mitochondria (green) and DAPI for the nucleus (blue). […]
To investigate the intracellular ROS levels, HEK293T or HepG2 cells were seeded in 6-well plates for one day, then incubated with the indicated inhibitors and 1 mM H2O2 for 12 h and 30 min, respectively. After trypsinization and one wash in PBS, the collected cells were resuspended in PBS and incubated with 100 μM probe DCFH-DA for 30 min at 37 °C before being analyzed using an LSR Fortessa flow cytometer.

## Cn1nc(Cc2ccccc2)nc2c(=O)n(C)c(=O)nc1-2 [CH004, 3-benzyl-1,6-dimethylpyrimido[5,4-e][1,2,4]triazine-5,7(1H,6H)-dione]
[1]
  IC50: 27.6 ± 0.9 µM
  IC50 fold to WT, Q222A: 23
[2]
  maximum increase of cellular ROS: ~ 2 fold
